Results on 24 compounds are retold here after US20080207614A1, “QUINAZOLINE DERIVATIVES FOR THE TREATMENT AND PREVENTION OF DIABETES AND OBESITY” (SK CHEMICALS CO., LTD., priority 2004, published 2008).

The test system of one assay is C2C12 muscle cells. Put plainly: Analysis of glucose absorption (2-deoxyglucose) in differentiated C2C12 muscle cells. Format: cell-based. Particulars: test materials 10 μM, times relative to control group. Summed up: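 Uptake of 0.2 μCi 2-deoxyglucose over 20 min, counted radiometrically in lysed cells. Before tracer, compounds (10 μM) were applied for 30 min to C2C12 cells differentiated 6 days in 1% serum and equilibrated 3 h in 5 mM glucose KRB.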

The next assay concerns AMPK. Briefly: Measurement of AMPK activity by Western blot in C2C12 cells. Format: cell-based. Details: key to AMPK activity (degree of phosphorylation of serine-79 and threonine-172): fold increase in threonine-172 phosphorylation; AMPK activity (degree of phosphorylation of serine-79): unit not given here. Particulars: 10 μM for 50 minutes; for AMPK activity (degree of phosphorylation of serine-79 and threonine-172): no superscript: Western blot of serine-79 and threonine-172 phosphorylation; for AMPK activity (class: degree of phosphorylation of threonine-172): strong/mild/weak; for AMPK activity (degree of phosphorylation of serine-79): footnote a: Western blot of serine-79 phosphorylation. The procedure: C2C12 cells were cultured and differentiated in the same manner as in Experimental Example 1. Treatment with the test materials was also performed in the same manner as in Experimental Example 1 (10 μM for 50 minutes). The culture medium was removed and the cells were washed for 2 times with PBS and protein extracts were obtained using a lysis buffer (50 mM tris-HCl, pH 7.4, 1% NP-40, 0.25% sodium deoxycholate, 150 mM NaCl, 1 mM EDTA, 1 mM PMSF, 1 mM sodium o-vanadate, 1 mM NaF, 1 μg/mL apronitin, 1 μg/mL leu-peptin, 1 μg/mL pepstatin). The AMPK activity was determined from Western blot analysis of the degree of phosphorylation of serine-79 […] acetyl CoA carboxylase and the degree of phosphorylation of threonine-172. The amount of ERK (extracellular signal regulated protein kinase) was confirmed by Western blot in order to quantify the proteins.
The result of Western blot analysis is given in Table 3 below, wherein “strong” means that the degree of phosphorylation of threonine-172 increased by 3 times or more, “mild” means that the degree of phosphorylation of threonine-172 increased by 1 to 3 times and “weak” means that the degree of phosphorylation of threonine-172 increased by less than 1 time.

Consider `Cc1nc(NCCc2ccccc2)c2ccccc2n1` [Compound 167, (2-Methylquinazolino-4-yl)-phenethylamine], for which the Glucose absorption in the assay with C2C12 muscle cells is reported as 3.2. Besides, in the assay on AMPK, the “AMPK activity (degree of phosphorylation of serine-79 and threonine-172)” value amounted to 6.7; the “AMPK activity (class: degree of phosphorylation of threonine-172)” value is “strong (“strong” means that the degree of phosphorylation of threonine-172 increased by 3 times or more)”.
For `COc1ccc(CNc2ncnc3ccccc23)cc1` [Compound 406, (4-Methoxybenzyl)-quinazolino-4-ylamine], the Glucose absorption in the assay on C2C12 muscle cells is given as 2.1. Moreover, the “AMPK activity (degree of phosphorylation of serine-79 and threonine-172)” value in the assay on AMPK is 1.5.
In the assay on C2C12 muscle cells, `COc1cc(CNc2nc(-c3ccco3)nc3ccccc23)cc(OC)c1` [Compound 343, (3,5-Dimethoxybenzyl)-(2-furano-2-ylquinazolino-4-yl)-amine] came in with a Glucose absorption of 1.3. For the same compound, in the assay on AMPK, the “AMPK activity (degree of phosphorylation of serine-79 and threonine-172)” value is listed as 0.8.
`CCSc1nc(NCc2ccc3c(c2)OCO3)c2ccccc2n1` [Compound 37, Benzo[1,3]dioxol-5-ylmethyl-(2-ethylsulfanylquinazolino-4-yl)-amine] displayed a Glucose absorption in the assay with C2C12 muscle cells of 2.2. The “AMPK activity (class: degree of phosphorylation of threonine-172)” value in the assay with AMPK is reported as “strong (“strong” means that the degree of phosphorylation of threonine-172 increased by 3 times or more)”.
As to `CCSc1nc(NCCc2cccc(C(F)(F)F)c2)c2ccccc2n1` [Compound 12, (2-Ethylsulfanylquinazolino-4-yl)-[2-(3-trifluoromethyl-phenyl)ethyl]-amine], the Glucose absorption with C2C12 muscle cells was determined as 0.8. Besides, the “AMPK activity (degree of phosphorylation of serine-79)” value in the assay with AMPK is given as 4.0^a.
As to `COc1ccc(CNc2nc(-c3ccccc3)nc3ccccc23)c(OC)c1` [Compound 144, (2,4-Dimethoxybenzyl)-(2-phenylquinazolino-4-yl)-amine], in the assay on C2C12 muscle cells, the Glucose absorption was 1.3. Besides, in the assay on AMPK, the “AMPK activity (degree of phosphorylation of serine-79 and threonine-172)” value is listed as 2.1; the “AMPK activity (class: degree of phosphorylation of threonine-172)” value is on record as “strong (“strong” means that the degree of phosphorylation of threonine-172 increased by 3 times or more)”.
In the case of `COc1ccc(CNc2nc(N3CCCCC3)nc3ccccc23)cc1OC` [Compound 300, (3,4-Dimethoxybenzyl)-(2-piperidino-1-ylquinazolino-4-yl)-amine], the Glucose absorption in the assay on C2C12 muscle cells stood at 0.9. Besides, the “AMPK activity (degree of phosphorylation of serine-79 and threonine-172)” value in the assay with AMPK was 1.0.
In the case of `COc1ccc(CNc2nc(N3CCOCC3)nc3ccccc23)cc1OC` [Compound 301, (3,4-Dimethoxybenzyl)-(2-morpholino-4-ylquinazolino-4-yl)-amine], in the assay with C2C12 muscle cells, the Glucose absorption turned out to be 0.8. Moreover, the “AMPK activity (degree of phosphorylation of serine-79 and threonine-172)” value in the assay with AMPK is 0.9.
As to `Cc1nc(NCc2cccc3ccccc23)c2ccccc2n1` [Compound 169, (2-Methylquinazolino-4-yl)-naphthaleno-1-ylmethylamine], in the assay on C2C12 muscle cells, the Glucose absorption is on record as 2.5. Besides, in the assay on AMPK, the “AMPK activity (degree of phosphorylation of serine-79 and threonine-172)” value was found to be 6.6; the “AMPK activity (class: degree of phosphorylation of threonine-172)” value is recorded as “strong (“strong” means that the degree of phosphorylation of threonine-172 increased by 3 times or more)”.
As for `Clc1cccc(CNc2nc(-c3ccccc3)nc3ccccc23)c1` [Compound 145, (3-Chlorobenzyl)-(2-phenylquinazolino-4-yl)-amine], in the assay with C2C12 muscle cells, the Glucose absorption is 2.2. Also, in the assay with AMPK, the “AMPK activity (degree of phosphorylation of serine-79 and threonine-172)” value is 2.7; the “AMPK activity (class: degree of phosphorylation of threonine-172)” value was “strong (“strong” means that the degree of phosphorylation of threonine-172 increased by 3 times or more)”.
The corresponding values for `COc1cc(CNc2nc(-c3ccccc3)nc3ccccc23)ccc1O` [Compound 113, 2-Methoxy-4-[(2-phenylquinazolino-4-ylamino)-methyl]-phenol] are 2.1, 2.1 and “strong (“strong” means that the degree of phosphorylation of threonine-172 increased by 3 times or more)”.
`COc1cccc(CNc2nc(C3CC3)nc3ccccc23)c1` [Compound 383, (2-Cyclopropylquinazolino-4-yl)-(3-methoxybenzyl)-amine]: the Glucose absorption in the assay on C2C12 muscle cells worked out at 1.4. Further, the “AMPK activity (degree of phosphorylation of serine-79 and threonine-172)” value in the assay on AMPK is 2.2.
Take `COc1ccc(CNc2nc(C3CCCCC3)nc3ccccc23)cc1` [Compound 201, (2-Cyclohexylquinazolino-4-yl)-(4-methoxybenzyl)-amine]: in the assay on C2C12 muscle cells, the Glucose absorption turned out to be 1.7. Further, in the assay with AMPK, the “AMPK activity (degree of phosphorylation of serine-79 and threonine-172)” value turned out to be 2.8; the “AMPK activity (class: degree of phosphorylation of threonine-172)” value was “strong (“strong” means that the degree of phosphorylation of threonine-172 increased by 3 times or more)”.
On to `c1ccc(CNc2nc(C3CCCCC3)nc3ccccc23)cc1` [Compound 199, Benzyl-(2-cyclohexylquinazolino-4-yl)-amine], for which the Glucose absorption in the assay with C2C12 muscle cells is 2.1. Besides, in the assay with AMPK, the “AMPK activity (degree of phosphorylation of serine-79 and threonine-172)” value was determined as 2.3; the “AMPK activity (class: degree of phosphorylation of threonine-172)” value is reported as “strong (“strong” means that the degree of phosphorylation of threonine-172 increased by 3 times or more)”.
For `COc1cccc(CNc2nc(C(C)C)nc3ccccc23)c1` [Compound 176, (2-Isopropylquinazolino-4-yl)-(3-methoxybenzyl)-amine], in that order: 2.4, 4.4 and “strong (“strong” means that the degree of phosphorylation of threonine-172 increased by 3 times or more)”.
The corresponding values for `CCCCN(C)c1nc(-c2ccccc2)nc2ccccc12` [Compound 138, Butylmethyl-(2-phenylquinazolino-4-yl)-amine] are 2.4, 2.9 and “strong (“strong” means that the degree of phosphorylation of threonine-172 increased by 3 times or more)”.
As for `COc1ccc(OC)c(CNc2nc(N3CCN(C)CC3)nc3ccccc23)c1` [Compound 298, (2,5-Dimethoxybenzyl)-[2-(4-methylpiperazino-1-yl)-quinazolino-4-yl]-amine], in the assay with C2C12 muscle cells, the Glucose absorption worked out at 0.6. Moreover, the “AMPK activity (degree of phosphorylation of serine-79 and threonine-172)” value in the assay on AMPK came out at 0.7.
The compound `Cc1ccc(CCNc2nc(-c3ccccc3)nc3ccccc23)cc1` [Compound 119, (2-Phenylquinazolino-4-yl)-(2-p-tollylethyl)-amine] showed a Glucose absorption with C2C12 muscle cells of 2.6. For the same compound, in the assay with AMPK, the “AMPK activity (degree of phosphorylation of serine-79 and threonine-172)” value was 2.3; the “AMPK activity (class: degree of phosphorylation of threonine-172)” value was “strong (“strong” means that the degree of phosphorylation of threonine-172 increased by 3 times or more)”.
For `Clc1ccccc1CCNc1nc(-c2ccccc2)nc2ccccc12` [Compound 151, [2-(2-Chlorophenyl)-ethyl]-(2-phenylquinazolino-4-yl)-amine], the Glucose absorption with C2C12 muscle cells is listed as 1.3. In addition, in the assay on AMPK, the “AMPK activity (degree of phosphorylation of serine-79 and threonine-172)” value is 1.8; the “AMPK activity (class: degree of phosphorylation of threonine-172)” value is recorded as “strong (“strong” means that the degree of phosphorylation of threonine-172 increased by 3 times or more)”.
In turn, `CCSc1nc(NCCc2cccc(F)c2)c2ccccc2n1` [Compound 10, (2-Ethylsulfanylquinazolino-4-yl)-[2-(3-fluorophenyl)-ethyl]-amine] showed a Glucose absorption in the assay on C2C12 muscle cells of 1.5. Moreover, the “AMPK activity (degree of phosphorylation of serine-79)” value with AMPK is on record as 5.3^a.
In the assay on C2C12 muscle cells, `COC(c1ccccc1)c1nc(NCc2ccc3c(c2)OCO3)c2ccccc2n1` (stereo not shown) [Compound 363, Benzo[1,3]dioxol-5-ylmethyl-[2-(methoxyphenylmethyl)-quinazolino-4-yl]-amine] showed a Glucose absorption of 1.3. For the same compound, the “AMPK activity (degree of phosphorylation of serine-79 and threonine-172)” value with AMPK worked out at 1.4.
For `Clc1ccc(CCNc2nc(-c3ccccc3)nc3ccccc23)cc1Cl` [Compound 149, [2-(3,4-Dichlorophenyl)-ethyl]-(2-phenylquinazolino-4-yl)-amine], the Glucose absorption with C2C12 muscle cells is 2.6. In the assay on AMPK, the “AMPK activity (degree of phosphorylation of serine-79 and threonine-172)” value was 2.5; the “AMPK activity (class: degree of phosphorylation of threonine-172)” value is reported as “strong (“strong” means that the degree of phosphorylation of threonine-172 increased by 3 times or more)”.
`Clc1ccc(CCNc2nc(-c3ccccc3)nc3ccccc23)cc1` [Compound 123, [2-(4-chlorophenyl)-ethyl]-(2-phenylquinazolino-4-yl)-amine] had a Glucose absorption with C2C12 muscle cells of 2.1. Also, in the assay on AMPK, the “AMPK activity (degree of phosphorylation of serine-79 and threonine-172)” value amounted to 2.3; the “AMPK activity (class: degree of phosphorylation of threonine-172)” value was “strong (“strong” means that the degree of phosphorylation of threonine-172 increased by 3 times or more)”.
The compound `COc1ccc(CSc2nc(-c3ccccc3)nc3ccccc23)c(OC)c1` [Compound 274, 4-(2,4-Dimethoxybenzylsulfanyl)-2-phenylquinazoline] registered a Glucose absorption in the assay with C2C12 muscle cells of 0.8. Besides, in the assay on AMPK, the “AMPK activity (degree of phosphorylation of serine-79 and threonine-172)” value turned out to be 1.9.
